According to patent publication US20090186766A1, “Heteroaroyl-Substituted Alanines with a Herbicidal Action” (BASF SE, priority 2006, published 2009):

Legend:
Setaria viridis = experiment: Greenhouse post-emergence herbicidal test; type: in vivo; settings: application rate 1 kg/ha
Excerpt: (§1) The seeds of the test plants were sown separately for each species. For the post-emergence treatment, the test plants were first grown to a height of 3 to 15 cm, depending on the plant habit, and only then treated with the active compounds which had been suspended or emulsified in water. For this purpose, the test plants were either sown directly and grown in the same containers, or they were first grown separately as seedlings and transplanted into the test containers a few days prior to treatment. The rate of application for the post-emergence treatment was 1.0 kg/ha of a.s. (active substance). Depending on the species, the plants were kept at 10-25° C. or 20-35° C. The test period extended over 2 to 4 weeks. During this time, the plants were tended, and their response to the individual treatments was evaluated. Evaluation was carried out using a scale from 0 to 100. 100 means no emergence of the plants, or complete destruction of at least the aerial parts, and 0 means no damage, or normal course of growth. The plants used in the greenhouse experiments belonged to the following species: [table]

Amaranthus retroflexus = experiment: Greenhouse post-emergence herbicidal test; type: in vivo
Excerpt: as §1, with “The rate of application for the post-emergence treatment was 1.0 kg/ha of a.s.” left out

Chenopodium album = experiment: Greenhouse post-emergence herbicidal test; type: in vivo
Excerpt: as §1, with “The rate of application for the post-emergence treatment was 1.0 kg/ha of a.s.” left out

Galium aparine = experiment: Greenhouse post-emergence herbicidal test; type: in vivo; settings: application rate 0.25 kg/ha
Excerpt: as §1, with “The rate of application for the post-emergence treatment was 1.0 kg/ha of a.s.” left out

## CNC(=O)C(NC(=O)c1cn(C)nc1C(F)(F)F)C(CO)c1ccccc1 (racemic) [Compound 3.1, N-(3-hydroxy-1-methylcarbamoyl-2-phenyl-propyl)-1-methyl-3-trifluoromethyl-1H-pyrazole-4-carboxamide]
Setaria viridis
  post-emergence action against Setaria viridis: very good
other
  melting point: 194 °C
Amaranthus retroflexus; application rate 1 kg/ha
  post-emergence action against Amaranthus retroflexus: very good
Chenopodium album; application rate 1 kg/ha
  post-emergence action against Chenopodium album: very good

## CNC(=O)C(NC(=O)c1cn(C)nc1C(F)(F)F)C(CO)c1ccccc1 (racemic) [Compound 3.2, N-(3-hydroxy-1-methylcarbamoyl-2-phenyl-propyl)-1-methyl-3-trifluoromethyl-1H-pyrazole-4-carboxamide]
Setaria viridis
  post-emergence action against Setaria viridis: very good
other
  melting point: 202 °C
Amaranthus retroflexus; application rate 1 kg/ha
  post-emergence action against Amaranthus retroflexus: very good
Chenopodium album; application rate 1 kg/ha
  post-emergence action against Chenopodium album: very good

## CNC(=O)[C@@H](NC(=O)c1cn(C)nc1C(F)(F)F)[C@H](CN)c1ccccc1 (racemic) [Compound 4.5, N-{(1RS,2RS)-3-Amino-1-[(methylamino)carbonyl]-2-phenylpropyl}-1-methyl-3-(trifluoromethyl)-1H-pyrazole-4-carboxamide]
other
  melting point: 91 °C

## CNC(=O)[C@H](NC(=O)c1cn(C)nc1C(F)(F)F)[C@H](CNC(=O)C(F)(F)F)c1ccccc1 (racemic) [Compound 4.17, 1-Methyl-N-{(1RS,2SR)-1-[(methylamino)carbonyl]-2-phenyl-3-(2,2,2-trifluoroacetylamino)propyl}-3-(trifluoromethyl)-1H-pyrazole-4-carboxamide]
other
  melting point: 233 °C

## CNC(=O)[C@H](NC(=O)c1cn(C)nc1C(F)(F)F)[C@H](C[N+](=O)[O-])c1ccccc1 (racemic) [Compound 5.3, 1-Methyl-N-{(1RS,2SR)-1-[(methylamino)carbonyl]-3-nitro-2-phenylpropyl}-3-(trifluoromethyl)-1H-pyrazole-4-carboxamide]
other
  melting point: 119 °C
Amaranthus retroflexus; application rate 0.25 kg/ha
  post-emergence action against Amaranthus retroflexus: very good
Galium aparine
  post-emergence action against Galium aparine: very good
Chenopodium album; application rate 0.25 kg/ha
  post-emergence action against Chenopodium album: very good

## CNC(=O)C(NC(=O)c1cn(C)nc1C(F)(F)F)C(COC(C)=O)c1ccccc1 (single isomer, unassigned) [Compound 3.7, 3-Methylcarbamoyl-3-[(1-methyl-3-trifluoromethyl-1H-pyrazole-4-carbonyl)amino]-2-phenylpropyl Acetate]
Setaria viridis
  post-emergence action against Setaria viridis: very good
Amaranthus retroflexus; application rate 1 kg/ha
  post-emergence action against Amaranthus retroflexus: very good
Chenopodium album; application rate 1 kg/ha
  post-emergence action against Chenopodium album: very good
